# Target: T1, full-length SARS-CoV-2 3CL protease (Severe acute respiratory syndrome coronavirus 2, UniProt P0DTD1)
# T1 construct: measures the activity of full-length SARS-CoV-2 3CL protease
# Experiment: SARS-CoV-2 Coronavirus 3C Protease FRET Assay (Dabcyl-KTSAVLQ-SGFRKME-Edans substrate)
# Assay type: biochemical
# Conditions: 15 nM enzyme, 25 μM peptide substrate, 60 minutes at 23° C.; Morrison equation fit; read-out: Geometric Mean Ki
row,SMILES,Ki [nM]
1,"COc1cccc2[nH]c(C(=O)N[C@@H](CC(C)C)C(=O)N[C@@H](C[C@@H]3CCNC3=O)C(=O)COC(=O)C3(C)CC3)cc12 [Example 21, (3S)-3-({N-[(4-methoxy-1H-indol-2-yl)carbonyl]-L-leucyl}amino)-2-oxo-4-[(3S)-2-oxopyrrolidin-3-yl]butyl 1-methylcyclopropanecarboxylate]",104
2,"COc1cccc2[nH]c(C(=O)N[C@@H](CC(C)C)C(=O)N[C@@H](C[C@@H]3CCNC3=O)C(=O)COC(=O)c3ccnn3C)cc12 [Example 42, (3S)-3-({N-[(4-methoxy-1H-indol-2-yl)carbonyl]-L-leucyl}amino)-2-oxo-4-[(3S)-2-oxopyrrolidin-3-yl]butyl 1-methyl-1H-pyrazole-5-carboxylate]",5.25
3,"COc1ccccc1C(=O)OCC(=O)[C@H](C[C@@H]1CCNC1=O)NC(=O)[C@H](CC(C)C)NC(=O)c1cc2c(OC)cccc2[nH]1 [Example 15, (3S)-3-({N-[(4-methoxy-1H-indol-2-yl)carbonyl]-L-leucyl}amino)-2-oxo-4-[(3S)-2-oxopyrrolidin-3-yl]butyl 2-methoxybenzoate]",147
4,"COc1cccc2[nH]c(C(=O)N[C@@H](CC(C)C)C(=O)N[C@@H](C[C@@H]3CCNC3=O)C(=O)COC(=O)c3ccn(C)n3)cc12 [Example 43, (3S)-3-({N-[(4-methoxy-1H-indol-2-yl)carbonyl]-L-leucyl}amino)-2-oxo-4-[(3S)-2-oxopyrrolidin-3-yl]butyl 1-methyl-1H-pyrazole-3-carboxylate]",118
5,"CCC(=O)OCC(=O)[C@H](C[C@@H]1CCNC1=O)NC(=O)[C@H](CC(C)C)NC(=O)c1cc2c(OC)cccc2[nH]1 [Example 9, (3S)-3-({N-[(4-methoxy-1H-indol-2-yl)carbonyl]-L-leucyl}amino)-2-oxo-4-[(3S)-2-oxopyrrolidin-3-yl]butyl propanoate]",33.6
6,"COc1cccc2[nH]c(C(=O)N[C@@H](CC(C)C)C(=O)N[C@@H](C[C@@H]3CCNC3=O)C(=O)COC(=O)c3cnn(C)c3)cc12 [Example 44, (3S)-3-({N-[(4-methoxy-1H-indol-2-yl)carbonyl]-L-leucyl}amino)-2-oxo-4-[(3S)-2-oxopyrrolidin-3-yl]butyl 1-methyl-1H-pyrazole-4-carboxylate]",90.6
7,"COc1cccc2[nH]c(C(=O)N[C@@H](CC(C)C)C(=O)N[C@@H](C[C@@H]3CCNC3=O)C(=O)COC(=O)C3(C)CCCCC3)cc12 [Example 13, (3S)-3-({N-[(4-methoxy-1H-indol-2-yl)carbonyl]-L-leucyl}amino)-2-oxo-4-[(3S)-2-oxopyrrolidin-3-yl]butyl 1-methylcyclohexanecarboxylate]",139
8,"COc1cccc2[nH]c(C(=O)N[C@@H](CC(C)C)C(=O)N[C@@H](C[C@@H]3CCNC3=O)C(=O)COC(=O)c3cn(C)nc3C)cc12 [Example 39, (3S)-3-({N-[(4-methoxy-1H-indol-2-yl)carbonyl]-L-leucyl}amino)-2-oxo-4-[(3S)-2-oxopyrrolidin-3-yl]butyl 1,3-dimethyl-1H-pyrazole-4-carboxylate]",91.9
9,"COc1cccc2[nH]c(C(=O)N[C@@H](CC(C)C)C(=O)N[C@@H](C[C@@H]3CCNC3=O)C(=O)COC(=O)c3cncn3C)cc12 [Example 45, (3S)-3-({N-[(4-methoxy-1H-indol-2-yl)carbonyl]-L-leucyl}amino)-2-oxo-4-[(3S)-2-oxopyrrolidin-3-yl]butyl 1-methyl-1H-imidazole-5-carboxylate]",40.7
10,"COc1cccc2[nH]c(C(=O)N[C@@H](CC(C)C)C(=O)N[C@@H](C[C@@H]3CCNC3=O)C(=O)COC(=O)c3c(C)ccnc3CN(C)C)cc12 [Example 59, (3S)-3-({N-[(4-methoxy-1H-indol-2-yl)carbonyl]-L-leucyl}amino)-2-oxo-4-[(3S)-2-oxopyrrolidin-3-yl]butyl 2-[(dimethylamino)methyl]-4-methylpyridine-3-carboxylate]",13.6
11,"COc1cccc2[nH]c(C(=O)N[C@@H](CC(C)C)C(=O)N[C@@H](C[C@@H]3CCNC3=O)C(=O)COC(=O)c3cccnc3)cc12 [Example 29, (3S)-3-({N-[(4-methoxy-1H-indol-2-yl)carbonyl]-L-leucyl}amino)-2-oxo-4-[(3S)-2-oxopyrrolidin-3-yl]butyl pyridine-3-carboxylate]",9.57
12,"CC[C@@H](C)C(=O)OCC(=O)[C@H](C[C@@H]1CCNC1=O)NC(=O)[C@H](CC(C)C)NC(=O)c1cc2c(OC)cccc2[nH]1 [Example 19, (3S)-3-({N-[(4-methoxy-1H-indol-2-yl)carbonyl]-L-leucyl}amino)-2-oxo-4-[(3S)-2-oxopyrrolidin-3-yl]butyl (2R)-2-methylbutanoate]",64.8
13,"COc1cccc2[nH]c(C(=O)N[C@@H](CC(C)C)C(=O)N[C@@H](C[C@@H]3CCNC3=O)C(=O)COC(=O)c3c(C)ccnc3C)cc12 [Example 62, (3S)-3-({N-[(4-methoxy-1H-indol-2-yl)carbonyl]-L-leucyl}amino)-2-oxo-4-[(3S)-2-oxopyrrolidin-3-yl]butyl 2,4-dimethylpyridine-3-carboxylate]",4.29
14,"COc1cccc2[nH]c(C(=O)N[C@@H](CC(C)C)C(=O)N[C@@H](C[C@@H]3CCNC3=O)C(=O)COC(=O)c3ccccn3)cc12 [Example 35, (3S)-3-({N-[(4-methoxy-1H-indol-2-yl)carbonyl]-L-leucyl}amino)-2-oxo-4-[(3S)-2-oxopyrrolidin-3-yl]butyl pyridine-2-carboxylate]",4.43
15,"COc1cccc2[nH]c(C(=O)N[C@@H](CC(C)C)C(=O)N[C@@H](C[C@@H]3CCNC3=O)C(=O)COC(=O)c3ccccc3C)cc12 [Example 11, (3S)-3-({N-[(4-methoxy-1H-indol-2-yl)carbonyl]-L-leucyl}amino)-2-oxo-4-[(3S)-2-oxopyrrolidin-3-yl]butyl 2-methylbenzoate]",71.4
16,"COc1cccc2[nH]c(C(=O)N[C@@H](CC(C)C)C(=O)N[C@@H](C[C@@H]3CCNC3=O)C(=O)COC(=O)[C@H]3CCCCN3C)cc12 [Example 37, (3S)-3-({N-[(4-methoxy-1H-indol-2-yl)carbonyl]-L-leucyl}amino)-2-oxo-4-[(3S)-2-oxopyrrolidin-3-yl]butyl (2R)-1-methylpiperidine-2-carboxylate]",1.42
17,"COc1cccc2[nH]c(C(=O)N[C@@H](CC(C)C)C(=O)N[C@@H](C[C@@H]3CCNC3=O)C(=O)COC(=O)c3ccccc3Cl)cc12 [Example 16, (3S)-3-({N-[(4-methoxy-1H-indol-2-yl)carbonyl]-L-leucyl}amino)-2-oxo-4-[(3S)-2-oxopyrrolidin-3-yl]butyl 2-chlorobenzoate]",10.5
18,"COc1cccc2[nH]c(C(=O)N[C@@H](CC(C)C)C(=O)N[C@@H](C[C@@H]3CCNC3=O)C(=O)COC(=O)C3CCN(C)CC3)cc12 [Example 30, (3S)-3-({N-[(4-methoxy-1H-indol-2-yl)carbonyl]-L-leucyl}amino)-2-oxo-4-[(3S)-2-oxopyrrolidin-3-yl]butyl 1-methylpiperidine-4-carboxylate]",6.13
19,"COc1cccc2[nH]c(C(=O)N[C@@H](CC(C)C)C(=O)N[C@@H](C[C@@H]3CCNC3=O)C(=O)COC(=O)c3ncn(C)c3C)cc12 [Example 40, (3S)-3-({N-[(4-methoxy-1H-indol-2-yl)carbonyl]-L-leucyl}amino)-2-oxo-4-[(3S)-2-oxopyrrolidin-3-yl]butyl 1,5-dimethyl-1H-imidazole-4-carboxylate]",306
20,"COc1cccc2[nH]c(C(=O)N[C@@H](CC(C)C)C(=O)N[C@@H](C[C@@H]3CCNC3=O)C(=O)COC(=O)c3cn(C)cn3)cc12 [Example 51, (3S)-3-({N-[(4-methoxy-1H-indol-2-yl)carbonyl]-L-leucyl}amino)-2-oxo-4-[(3S)-2-oxopyrrolidin-3-yl]butyl 1-methyl-1H-imidazole-4-carboxylate]",152
21,"COc1cccc(C)c1C(=O)OCC(=O)[C@H](C[C@@H]1CCNC1=O)NC(=O)[C@H](CC(C)C)NC(=O)c1cc2c(OC)cccc2[nH]1 [Example 66, (3S)-3-({N-[(4-methoxy-1H-indol-2-yl)carbonyl]-L-leucyl}amino)-2-oxo-4-[(3S)-2-oxopyrrolidin-3-yl]butyl 2-methoxy-6-methylbenzoate]",39.6
22,"COc1cc(C)c(C(=O)OCC(=O)[C@H](C[C@@H]2CCNC2=O)NC(=O)[C@H](CC(C)C)NC(=O)c2cc3c(OC)cccc3[nH]2)c(C)c1 [Example 73, (3S)-3-({N-[(4-methoxy-1H-indol-2-yl)carbonyl]-L-leucyl}amino)-2-oxo-4-[(3S)-2-oxopyrrolidin-3-yl]butyl 4-methoxy-2,6-dimethyl benzoate]",117
23,"COc1cccc2[nH]c(C(=O)N[C@@H](CC(C)C)C(=O)N[C@@H](C[C@@H]3CCNC3=O)C(=O)COC(=O)c3c(C)cc(F)cc3C)cc12 [Example 74, (3S)-3-({N-[(4-methoxy-1H-indol-2-yl)carbonyl]-L-leucyl}amino)-2-oxo-4-[(3S)-2-oxopyrrolidin-3-yl]butyl 4-fluoro-2,6-dimethylbenzoate]",44.3
24,"COc1cccc2[nH]c(C(=O)N[C@@H](CC(C)C)C(=O)N[C@@H](C[C@@H]3CCNC3=O)C(=O)COC(=O)c3cccnc3C)cc12 [Example 24, (3S)-3-({N-[(4-methoxy-1H-indol-2-yl)carbonyl]-L-leucyl}amino)-2-oxo-4-[(3S)-2-oxopyrrolidin-3-yl]butyl 2-methylpyridine-3-carboxylate]",14.2
25,"COc1cccc2[nH]c(C(=O)N[C@@H](CC(C)C)C(=O)N[C@@H](C[C@@H]3CCNC3=O)C(=O)COC(=O)C3(C)CCN(C)CC3)cc12 [Example 17, (3S)-3-({N-[(4-methoxy-1H-indol-2-yl)carbonyl]-L-leucyl}amino)-2-oxo-4-[(3S)-2-oxopyrrolidin-3-yl]butyl 1,4-dimethylpiperidine-4-carboxylate]",17.5
26,"COc1cccc2[nH]c(C(=O)N[C@@H](CC(C)C)C(=O)N[C@@H](C[C@@H]3CCNC3=O)C(=O)COC(=O)c3c(C)cncc3C)cc12 [Example 68, (3S)-3-({N-[(4-methoxy-1H-indol-2-yl)carbonyl]-L-leucyl}amino)-2-oxo-4-[(3S)-2-oxopyrrolidin-3-yl]butyl 3,5-di methylpyridine-4-carboxylate]",7.56
